Consider 13 compounds from ChEMBL document CHEMBL1132390, “Chemical modifications and structure activity studies of ziracin and related everninomicin antibiotics” (1999).

The test system of one assay is Staphylococcus sp. The assay is described as follows: In vitro antibacterial activity of compound against Staphylococci bacteria. The assay is classed as functional.
The next assay concerns Enterococcus sp. The assay can be described thus: In vitro antibacterial activity of compound against Enterococci bacteria. The format is functional.

Values after ≈ are worked out from the molar mass of the structure shown.

What is called MIC is the least concentration at which growth counts as inhibited. Higher therefore signals weaker potency. As to `COC[C@H]1O[C@@H](O[C@@H]2OC[C@@H]3O[C@@]4(OC[C@@H](OC(=O)c5c(C)cc(O)cc5O)[C@@H]5OCO[C@H]54)O[C@H]3[C@H]2O)[C@@H](OC)[C@@H](O)[C@@H]1O[C@@H]1O[C@H](C)[C@H](OC)[C@H](O[C@@H]2O[C@H](C)[C@H]3O[C@]4(C[C@@H](O)[C@H](O[C@H]5C[C@@H](O[C@H]6C[C@](C)(NC(C)=O)[C@@H](OC)[C@H](C)O6)[C@H](OC(=O)c6c(C)c(Cl)c(O)c(Cl)c6OC)[C@@H](C)O5)[C@@H](C)O4)O[C@]3(C)[C@@H]2O)[C@@]1(C)O`, the MIC is 1 µg/mL (≈ 0.603 µM) in the assay on Staphylococcus sp. and 2 µg/mL (≈ 1.21 µM) in the assay with Enterococcus sp..

In the case of `COC[C@H]1O[C@@H](O[C@@H]2OC[C@@H]3O[C@@]4(OC[C@@H](OC(=O)c5c(C)cc(O)cc5O)[C@@H]5OCO[C@H]54)O[C@H]3[C@H]2O)[C@@H](OC)[C@@H](O)[C@@H]1O[C@@H]1O[C@H](C)[C@H](OC)[C@H](O[C@@H]2O[C@H](C)[C@H]3O[C@]4(C[C@@H](O)[C@H](O[C@H]5C[C@@H](O[C@H]6C[C@](C)(NC(=O)[C@@H](CCCCNC(=O)OCc7ccccc7)NC(=O)OCc7ccccc7)[C@@H](OC)[C@H](C)O6)[C@H](OC(=O)c6c(C)c(Cl)c(O)c(Cl)c6OC)[C@@H](C)O5)[C@@H](C)O4)O[C@]3(C)[C@@H]2O)[C@@]1(C)O`, the MIC with Staphylococcus sp. came out at 32 µg/mL (≈ 15.9 µM); with Enterococcus sp., 8 µg/mL (≈ 3.98 µM).

In the case of `C=CCOc1cc(C)c(C(=O)O[C@@H]2CO[C@]3(O[C@H]4[C@@H](OCCO)[C@H](O[C@@H]5O[C@H](COC)[C@@H](O[C@@H]6O[C@H](C)[C@H](OC)[C@H](O[C@@H]7O[C@H](C)[C@H]8O[C@]9(C[C@@H](O)[C@H](O[C@H]%10C[C@@H](O[C@H]%11C[C@](C)([N+](=O)[O-])[C@@H](OC)[C@H](C)O%11)[C@H](OC(=O)c%11c(C)c(Cl)c(OCC=C)c(Cl)c%11OC)[C@@H](C)O%10)[C@@H](C)O9)O[C@]8(C)[C@@H]7O)[C@@]6(C)O)[C@H](O)[C@@H]5OC)OC[C@@H]4O3)[C@@H]3OCO[C@H]32)c(OCC=C)c1`, the results for the MIC in the assay on Staphylococcus sp. and in the assay with Enterococcus sp. were 16 µg/mL (≈ 8.84 µM) and 8 µg/mL (≈ 4.42 µM), respectively.

As to `COC[C@H]1O[C@@H](O[C@@H]2OC[C@@H]3O[C@@]4(OC[C@@H](OC(=O)c5c(C)cc(O)cc5O)[C@@H]5OCO[C@H]54)O[C@H]3[C@H]2OCCN=[N+]=[N-])[C@@H](OC)[C@@H](O)[C@@H]1O[C@@H]1O[C@H](C)[C@H](OC)[C@H](O[C@@H]2O[C@H](C)[C@H]3O[C@]4(C[C@@H](O)[C@H](O[C@H]5C[C@@H](O[C@H]6C[C@](C)([N+](=O)[O-])[C@@H](OC)[C@H](C)O6)[C@H](OC(=O)c6c(C)c(Cl)c(O)c(Cl)c6OC)[C@@H](C)O5)[C@@H](C)O4)O[C@]3(C)[C@@H]2O)[C@@]1(C)O`, the MIC against Staphylococcus sp. and against Enterococcus sp. was 2 µg/mL (≈ 1.17 µM) throughout.

Consider `COC[C@H]1O[C@@H](O[C@@H]2OC[C@@H]3O[C@@]4(OC[C@@H](OC(=O)c5c(C)cc(O)cc5O)[C@@H]5OCO[C@H]54)O[C@H]3[C@H]2O)[C@@H](OC)[C@@H](O)[C@@H]1O[C@@H]1O[C@H](C)[C@H](OC)[C@H](O[C@@H]2O[C@H](C)[C@H]3O[C@]4(C[C@@H](O)[C@H](O[C@H]5C[C@@H](O[C@H]6C[C@](C)(NC(=O)[C@H](C)N)[C@@H](OC)[C@H](C)O6)[C@H](OC(=O)c6c(C)c(Cl)c(O)c(Cl)c6OC)[C@@H](C)O5)[C@@H](C)O4)O[C@]3(C)[C@@H]2O)[C@@]1(C)O`, for which the MIC with Staphylococcus sp. and in the assay on Enterococcus sp. was 4 µg/mL (≈ 2.37 µM) in each case.

Take `COC[C@H]1O[C@@H](O[C@@H]2OC[C@@H]3O[C@@]4(OC[C@@H](OC(=O)c5c(C)cc(O)cc5O)[C@@H]5OCO[C@H]54)O[C@H]3[C@H]2O)[C@@H](OC)[C@@H](O)[C@@H]1O[C@@H]1O[C@H](C)[C@H](OC)[C@H](O[C@@H]2O[C@H](C)[C@H]3O[C@]4(C[C@@H](O)[C@H](O[C@H]5C[C@@H](O[C@H]6C[C@](C)(NC(=O)[C@H](CCSC)NC(=O)OCc7ccccc7)[C@@H](OC)[C@H](C)O6)[C@H](OC(=O)c6c(C)c(Cl)c(O)c(Cl)c6OC)[C@@H](C)O5)[C@@H](C)O4)O[C@]3(C)[C@@H]2O)[C@@]1(C)O`: the MIC in the assay on Staphylococcus sp. and against Enterococcus sp. was 2 µg/mL (≈ 1.06 µM) throughout.

As to `COC[C@H]1O[C@@H](O[C@@H]2OC[C@@H]3O[C@@]4(OC[C@@H](OC(=O)c5c(C)cc(O)cc5O)[C@@H]5OCO[C@H]54)O[C@H]3[C@H]2OCCO)[C@@H](OC)[C@@H](O)[C@@H]1O[C@@H]1O[C@H](C)[C@H](OC)[C@H](O[C@@H]2O[C@H](C)[C@H]3O[C@]4(C[C@@H](O)[C@H](O[C@H]5C[C@@H](O[C@H]6C[C@](C)([N+](=O)[O-])[C@@H](OC)[C@H](C)O6)[C@H](OC(=O)c6c(C)c(Cl)c(O)c(Cl)c6OC)[C@@H](C)O5)[C@@H](C)O4)O[C@]3(C)[C@@H]2O)[C@@]1(C)O`, the MIC with Staphylococcus sp. amounted to 1 µg/mL (≈ 0.592 µM); with Enterococcus sp. it was 0.5 µg/mL (≈ 0.296 µM).

For `COC[C@H]1O[C@@H](O[C@@H]2OC[C@@H]3O[C@@]4(OC[C@@H](OC(=O)c5c(C)cc(O)cc5O)[C@@H]5OCO[C@H]54)O[C@H]3[C@H]2OC)[C@@H](OC)[C@@H](OC)C1O[C@@H]1O[C@H](C)[C@H](OC)C(O[C@@H]2O[C@H](C)[C@H]3O[C@]4(C[C@@H](OC)[C@H](O[C@H]5C[C@@H](O[C@H]6C[C@](C)([N+](=O)[O-])[C@@H](OC)[C@H](C)O6)[C@H](OC(=O)c6c(C)c(Cl)c(O)c(Cl)c6OC)[C@@H](C)O5)[C@@H](C)O4)O[C@]3(C)[C@@H]2OC)[C@@]1(C)OC` (stereo partly specified), the MIC is 16 µg/mL (≈ 9.33 µM) against Staphylococcus sp. and 4 µg/mL (≈ 2.33 µM) in the assay with Enterococcus sp..

Regarding `COC[C@H]1O[C@@H](O[C@@H]2OC[C@@H]3O[C@@]4(OC[C@@H](OC(=O)c5c(C)cc(O)cc5O)[C@@H]5OCO[C@H]54)O[C@H]3[C@H]2O)[C@@H](OC)[C@@H](O)[C@@H]1O[C@@H]1O[C@H](C)[C@H](OC)[C@H](O[C@@H]2O[C@H](C)[C@H]3O[C@]4(C[C@@H](O)[C@H](O[C@H]5C[C@@H](O[C@H]6C[C@](C)(N)[C@@H](OC)[C@H](C)O6)[C@H](OC(=O)c6c(C)c(Cl)c(O)c(Cl)c6OC)[C@@H](C)O5)[C@@H](C)O4)O[C@]3(C)[C@@H]2O)[C@@]1(C)O`, the MIC in the assay with Staphylococcus sp. is 2 µg/mL (≈ 1.24 µM); in the assay with Enterococcus sp., 4 µg/mL (≈ 2.48 µM).

With `COC[C@H]1O[C@@H](O[C@@H]2OC[C@@H]3O[C@@]4(OC[C@@H](OC(=O)c5c(C)cc(O)cc5O)[C@@H]5OCO[C@H]54)O[C@H]3[C@H]2OCCNC(C)=O)[C@@H](OC)[C@@H](O)[C@@H]1O[C@@H]1O[C@H](C)[C@H](OC)[C@H](O[C@@H]2O[C@H](C)[C@H]3O[C@]4(C[C@@H](O)[C@H](O[C@H]5C[C@@H](O[C@H]6C[C@](C)([N+](=O)[O-])[C@@H](OC)[C@H](C)O6)[C@H](OC(=O)c6c(C)c(Cl)c(O)c(Cl)c6OC)[C@@H](C)O5)[C@@H](C)O4)O[C@]3(C)[C@@H]2O)[C@@]1(C)O`, the MIC was determined as 2 µg/mL (≈ 1.16 µM) with Staphylococcus sp. and 4 µg/mL (≈ 2.31 µM) in the assay on Enterococcus sp..

In the case of `C=CCOc1c(Cl)c(C)c(C(=O)O[C@@H]2[C@@H](C)O[C@@H](O[C@H]3[C@H](O)C[C@]4(O[C@@H]5[C@@H](C)O[C@@H](O[C@H]6[C@@H](OC)[C@@H](C)O[C@@H](O[C@H]7[C@H](O)[C@H](OC)[C@H](O[C@@H]8OC[C@@H]9O[C@@]%10(OC[C@@H](OC(=O)c%11c(C)cc(O)cc%11O)[C@@H]%11OCO[C@H]%11%10)O[C@H]9[C@H]8O)O[C@@H]7COC)[C@]6(C)O)[C@@H](O)[C@@]5(C)O4)O[C@@H]3C)C[C@H]2O[C@H]2C[C@](C)([N+](=O)[O-])[C@@H](OC)[C@H](C)O2)c(OC)c1Cl`, the MIC in the assay on Staphylococcus sp. and against Enterococcus sp. was 4 µg/mL (≈ 2.37 µM) each time.

For the compound `COC[C@H]1O[C@@H](O[C@@H]2OC[C@@H]3O[C@@]4(OC[C@@H](OC(=O)c5c(C)cc(O)cc5O)[C@@H]5OCO[C@H]54)O[C@H]3[C@H]2OCC(=O)OC)[C@@H](OC)[C@@H](OCC(=O)OC)[C@@H]1O[C@@H]1O[C@H](C)[C@H](OC)[C@H](O[C@@H]2O[C@H](C)[C@H]3O[C@]4(C[C@@H](O)[C@H](O[C@H]5C[C@@H](O[C@H]6C[C@](C)([N+](=O)[O-])[C@@H](OC)[C@H](C)O6)[C@H](OC(=O)c6c(C)c(Cl)c(O)c(Cl)c6OC)[C@@H](C)O5)[C@@H](C)O4)O[C@]3(C)[C@@H]2OCC(=O)OC)[C@@]1(C)O`, the MIC against Staphylococcus sp. worked out at 32 µg/mL (≈ 17.2 µM); against Enterococcus sp. it was 4 µg/mL (≈ 2.15 µM).

On to `COC[C@H]1O[C@@H](O[C@@H]2OC[C@@H]3O[C@@]4(OC[C@@H](OC(=O)c5c(C)cc(O)cc5O)[C@@H]5OCO[C@H]54)O[C@H]3[C@H]2O)[C@@H](OC)[C@@H](O)[C@@H]1O[C@@H]1O[C@H](C)[C@H](OC)[C@H](O[C@@H]2O[C@H](C)[C@H]3O[C@]4(C[C@@H](O)[C@H](O[C@H]5C[C@@H](O[C@H]6C[C@](C)([N+](=O)[O-])[C@@H](OC)[C@H](C)O6)[C@H](OC(=O)c6c(C)c(Cl)c(O)c(Cl)c6OC)[C@@H](C)O5)[C@@H](C)O4)O[C@]3(C)[C@@H]2O)[C@H]1O` [EVERNIMICIN], for which the MIC with Staphylococcus sp. came to 2 µg/mL (≈ 1.23 µM); in the assay on Enterococcus sp. it was 0.25 µg/mL (≈ 0.153 µM).
